Experimental data published in PMC12903969, “Discovery of a Novel and Potent Kir4.1 Inhibitor as a Safe and Rapid‐Onset Antidepressant Agent in Mice” (Advanced Science, 2025).
Where two headings read alike, the source gives them in different places.

Columns and labels:
5-HT2A receptor = molecular target: T1, 5-HT2A receptor (Homo sapiens, UniProt P28223); experiment: 5-HT2A functional assay (Fluo-4 calcium, FDSS); assay type: cell-based
T1 construct: expressed in transfected cells
Description: Cells with inducible expression of target receptor were cultured in 175‐cm^2 flasks until ≈80% confluence, washed once with phosphate‐buffered saline (PBS), and dissociated using 0.25% trypsin–EDTA. After neutralization with culture medium and centrifugation (800 rpm, 3 min), the cells were resuspended, counted, and seeded onto poly‐D‐lysine‐coated 96‐well black plates at a density of 4 × 10^4 cells/well. Expression of the target receptor was induced with 1 µg mL^−1 doxycycline. After 30 min at room temperature, the plates were incubated at 37 °C, 5% CO2 for 18−24 h until reaching ≈90% confluence. The medium was replaced with Ca^2⁺‐free extracellular buffer, washed once, and incubated with Fluo‐4 AM for 60 min at 37 °C in the dark. After washing twice with extracellular buffer, extracellular buffer was added (80 µL/well), and the cells were incubated for an additional 20 min at room temperature before fluorescence recording. Real‐time fluorescence changes were recorded using an FDSS/µCell system at 480 nm excitation and 540 nm emission with a sampling rate of 1 Hz. After a 10‐s baseline, the test compounds were added (20 µL/well), and fluorescence was recorded for 180 s. Subsequently, […] was added (20 µL/well), and the signals were monitored for a total of 360 s.
The agonistic effect (%) of compounds was calculated as follows: (1) Agonist%=Rcompound−Rcontrol/Rcontrol×100% where R control is the maximal fluorescence ratio after the addition of 0.5% DMSO and R compoundis the ratio obtained after compound treatment. Fluorescence response curves and EC50 values were used to evaluate the agonistic potency. The extracellular (Ca^2+‐free) buffer contained (in mM): 140 NaCl, 5 KCl, 1 MgCl2, 10 glucose, 10 HEPES, 2 probenecid; pH adjusted to 7.4 with NaOH.

[1] = Plasma/tissue (kidney) distribution; assay type: in vivo; conditions: male, C57BL/6J, mouse, ip, mice (N = 3), 10 mg/kg i.p.
Description: Male C57BL/6J mice were used for both blood–brain penetration and plasma/tissue distribution studies, with mice assigned to three groups: 10 mg kg^−1 JX3212 (n = 3), 20 mg kg^−1 JX3212 (n = 3) for blood–brain penetration, and 10 mg kg^−1 JX3212 for plasma/tissue distribution (all administered via intraperitoneal injection), where mice in the blood–brain penetration groups were fasted for 12 h prior to drug administration and 2 h post‐administration; 1 h after drug administration, 0.2 mL of blood was collected from the retro‐orbital/orbital venous plexus into 1.5 mL heparinized tubes, centrifuged at 11 000 rpm for 5 min to obtain plasma (stored at −80 °C for blood–brain penetration groups), while whole brains were excised for blood–brain penetration groups and whole brains plus kidneys (rinsed with physiological saline, blotted dry on filter paper, and accurately weighed) for the plasma/tissue distribution group; plasma samples (20 µL) were mixed with 20 µL internal standard solution and 300 µL acetonitrile for protein precipitation, vortexed for 15 min, centrifuged at 3700 rpm for 15 min at 4 °C, and the supernatant was collected, whereas brain and kidney samples were homogenized in acetonitrile at 10× tissue weight (8000 rpm, 3 × 30 s), sonicated for 5 min, and processed identically to plasma samples; the concentrations of JX3212 in plasma and tissues were quantified by liquid chromatography–tandem mass spectrometry (LC−MS/MS), with lower limits of quantification set to 50 ng mL^−1 for plasma and 50 ng g^−1 for brain tissue.

C57BL/6J mice [2] = experiment: Seizure threshold measurement in maximal electroshock (MES); assay type: in vivo; set-up: seizure incidence, Single dose-MES / seizure incidence, Multiple dose-MES: unit not given here; conditions: for seizure incidence, Multiple dose-MES / seizure incidence, Single dose-MES: JX3212 10 mpk
Description: Male C57BL/6J mice underwent corneal electroshock stimulation using an Orchid Scientifics EC‐02 stimulator with a fixed pulse duration of 0.2 s. The current intensity was titrated in a stepwise manner (0.1 mA increments) based on real‐time behavioral responses during serial testing. Seizure severity was quantified using the hindlimb tonic extension score, with rigorous blinding applied to the vehicle‐ and JX3212‐treated groups. Subsequently, CS50 values were determined.

C57BL/6J mice [3] = experiment: Open field test (OFT) after chronic administration; assay type: in vivo; conditions: chronic 10 mg kg−1 per day
Description: This test was used to assess anxiety‐related behaviors in the mice. C57BL/6J mice were individually habituated to a 40 × 40 × 40 cm^3 open field arena under dim light for […]. Locomotor activity during the final 5 min was digitally recorded (30 fps) and analyzed using Tracking Master (Future Life Science (Shanghai) Co., Ltd., Shanghai, China). The primary endpoints included the total ambulatory distance (cm) and center‐zone exploration frequency (20 × 20 cm^2 central area).

mice [4] = experiment: Y-maze; assay type: in vivo; conditions: chronic 10 mg kg−1 per day
Description: This test was designed to evaluate spatial working memory. Briefly, mice were individually placed in a symmetrical Y‐maze and allowed to explore for 8 min. Entries were counted only when both hind paws crossed the arm threshold. Correct spatial alternation was defined as an entry into all three arms in an uninterrupted sequence (e.g., ABC, BCA or CAB each representing one alternation). The alternation percentage was derived as: [correct alternations/(total entries–2)] × 100%. After each session, the walls and floor of the maze were wiped with 75% ethanol and allowed to dry before the next animal was tested.

mice [5] = experiment: Treadmill test (TT); assay type: in vivo; conditions: chronic 10 mg kg−1 per day
Description: This test was designed to quantify locomotor endurance in rodents. The time (300 s) and speed (maximum: 30 rpm) parameters for the treadmill were set using a digital panel and the mice were placed in lanes. Gentle electrical probes (0.3 mA) served as motivational stimuli. Total distance traveled was automatically recorded using rotary encoder integration.

T1 sequence (P28223 whole entry): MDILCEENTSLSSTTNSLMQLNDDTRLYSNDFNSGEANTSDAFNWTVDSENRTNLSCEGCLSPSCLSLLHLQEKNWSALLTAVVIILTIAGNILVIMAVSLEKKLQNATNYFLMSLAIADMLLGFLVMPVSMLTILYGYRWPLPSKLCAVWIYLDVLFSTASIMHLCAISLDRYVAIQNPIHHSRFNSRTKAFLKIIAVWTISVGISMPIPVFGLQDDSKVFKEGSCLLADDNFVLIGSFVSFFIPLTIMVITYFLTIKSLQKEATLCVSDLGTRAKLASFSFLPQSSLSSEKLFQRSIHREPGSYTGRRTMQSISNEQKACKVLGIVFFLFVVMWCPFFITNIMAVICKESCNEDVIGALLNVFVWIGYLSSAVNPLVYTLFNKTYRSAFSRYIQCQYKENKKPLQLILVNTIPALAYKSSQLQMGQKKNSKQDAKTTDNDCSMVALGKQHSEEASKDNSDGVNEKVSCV

c1ccc2c(c1)oc1ccc(Nc3ccnc(NCCCN4CCOCC4)n3)cc12 [JX3212, N^4-(dibenzo[b,d]furan-2-yl)-N^2-(3-morpholinopropyl)pyrimidine-2,4-diamine]
EC50 (5-HT2A receptor; agonistic effect): > 60 µM
activation at 60 µM (5-HT2A receptor; read-out: 5-HT2A agonistic effect, replicates, concentration 60 (presumably µM)): 61.8%
Emax (5-HT2A receptor; read-out: 5-HT2A max activation%): 58.6%
concentration at 1 h ([1]; kidney, read-out: Kidney Calculated Concentration): 18400 ± 681 ng/mL
Kp at 1 h ([1]; kidney/plasma): 78.9 ± 2.74
concentration at 1 h ([1]; plasma, read-out: Plasma Calculated Concentration): 234 ± 14.4 ng/mL
seizure susceptibility, maximal electronic seizure model (in words) (C57BL/6J mice [2]; 10 mg kg−1, single or 14-day consecutive administration): did not alter seizure susceptibility
seizure incidence, Multiple dose-MES (C57BL/6J mice [2]; stimulus 0.45 mA): 0
seizure incidence, Single dose-MES (C57BL/6J mice [2]; stimulus 0.45 mA): 0
seizure incidence, Multiple dose-MES (C57BL/6J mice [2]; stimulus 0.55 mA): 12.5
seizure incidence, Single dose-MES (C57BL/6J mice [2]; stimulus 0.55 mA): 37.5
seizure incidence, Multiple dose-MES (C57BL/6J mice [2]; stimulus 0.65 mA): 50
seizure incidence, Single dose-MES (C57BL/6J mice [2]; stimulus 0.65 mA): 50
seizure incidence, Multiple dose-MES (C57BL/6J mice [2]; stimulus 0.75 mA): 87.5
seizure incidence, Single dose-MES (C57BL/6J mice [2]; stimulus 0.75 mA): 75
OFT total and central distance traveled (in words) (C57BL/6J mice [3]): no pronounced differences
Y-maze alternation percentage vs vehicle (in words) (mice [4]): showed no effects
treadmill running distance vs vehicle (in words) (mice [5]): showed no significant effects
